Test results as given in patent US11026940B2, “Compositions for the mobilization, homing, expansion and differentiation of stem cells and methods of using the same” (Ampio Pharmaceuticals, Inc., priority 2013, dated 2021).
“And” between values parts separate entries of the source, which are not always exact repeats. Identical values can stand only once.

Legend:
Format in all cases: cell-based, human
Aggrecan = experiment: Stem cell chondrogenesis, real time PCR gene expression: Aggrecan; conditions: Day 22; for Mean ΔCp / ΔCp: Aggrecan vs Actin; for Mean regulation / regulation: vs saline
Method: (§1) • Stem Cells: Bone marrow derived human mesenchymal stem cells: Passage 5 Bone marrow derived human mesenchymal stem cells (HUXMA-01001, Cyagen Biosciences, Sunnyvale Calif.) • Mesenchymal Stem Cell Chondrogenic Differentiation medium (GUXMX-90041, Cyagen Biosciences, Sunnyvale Calif.) • TheraPEAK MSCGM chemically defined Stem cell medium (190632 Lonza) • 1 mM Dexamethasone acetate and mifepristone in absolute ethanol (Sigma) • Saline or 0.9% Sodium chloride for injection ZR Flush (Excelsior Medical, Neptune N.J.) • Sterile filtered 0.6 mM sodium caprylate in saline (sigma) • Sterile filtered 3 mM NAT in saline (sigma); To prepare, heat at 60° C. for 30 minutes then sonicate for 5 minutes. • Sterile filtered 10 mM DADKP in saline • 0.2 μM syringe filters • Hepes buffered saline, Trypsin/EDTA, Trypsin neutralizing solution (Lonza reagent pack) • 182 cm2 tissue culture flasks • pipettes and sterile tips • Tissue culture hood, humidified CO2 incubator, water or bead bath • 24 well tissue culture plates • Qiagen RNeasy plus spin columns (Qiagen 74134) • Qiagen RT2 qPCR primer pairs for Collagen 2A1, MMP13, TIMP1, Aggrecan, GAPDH, and Actin B • Roche Sybr green I master mix and Invitrogen Superscript VILO master mix. • Roche 480 lightcycler
(§2) The following stock drug treatment solutions were prepared in saline for injection and warmed to 37° C. in bath: • 4 μM dexamethasone • 4 μM mifepristone • 3 mM NAT • 0.6 mM caprylate • 80 μM DADKP • Mix of 3 mM NAT, 0.6 mM caprylate, 80 μM DADKP (“Ampion” mix)
(§3) Cyagen Chondrogenic Differentiation medium was prepared by manufacturer protocols but excluding dexamethasone and TGF beta 3 supplements, and warmed to 37° C. in bath.
(§4) The treatment protocol included expanding 5 HUXMA stem cells in 182 cm^2 flasks containing 40 mls TheraPEAK™ MSCGM to 80-90% confluence. Cells were trypsinized from the flasks and a 1.0×10^7 cell suspension of HUXMA stem cells was warmed in Cyagen Chondrogenic Differentiation medium. 20 μl of warmed cell suspension was spotted in the middle of each well of a 24-well tissue culture plate (200,000 cells per spot), and incubated at 37° C. and 5% CO2 for one hour.
(§5) The plates were removed from the incubator and an additional 720 μl chondrogenic medium was added to each well. 250 μl saline, or drug solutions were added to the appropriate wells in triplicate (bringing the final drug dilution to one-quarter of the stock drug treatment solution concentrations). 10 μl of TGF beta 3 solution (supplied by Cyagen) was added to each well, and the plates were returned to the incubator.
(§6) RNA isolation and analysis was conducted for all plates as follows at days 7, 14, and 22 post treatment (with the described medium exchanges). […] Qiagen RNeasy plus lysis buffer (with 2mercaptoethanol) was added to each well and gently shaken for 10 minutes. The lysed cell suspensions from each well were transferred to Qiashredder columns and spun at 14,000 rpm for 2 minutes. RNA isolation proceeded by RNeasy™ plus manufacturer's protocol. RNA was eluted from the Qiagen columns using 25 μl RNase free water.
(§7) cDNA synthesis and real time PCR was conducted as follows. First strand synthesis of cDNA from all samples was performed in 20 μl total volume using 10 μl isolated RNA. All cDNA reactions were then diluted with 30 μl nuclease free water. Real time PCR was then performed using 5 μl diluted cDNA, Roche Syber green master mix, and Qiagen RT^2 gPCR™ primer pairs in 20 μl total reaction volume. Relative gene expression was determined by delta deta Ct method.

Collagen 2A1 = experiment: Stem cell chondrogenesis, real time PCR gene expression: Collagen 2A1; conditions: for Mean regulation / regulation: vs saline; for Mean ΔCp / ΔCp: Collagen 2A1 vs GAPDH; for regulation, Collagen 2A1 / Mean regulation, Collagen 2A1: fold regulation vs saline; for regulation, Collagen 2A1 / ΔCp, Collagen 2A1 / 2^-ΔΔCp vs saline, Collagen 2A1 / ΔΔCp vs saline, Collagen 2A1: single replicate well; for Mean regulation, Collagen 2A1 / Mean ΔCp, Collagen 2A1: triplicate wells; for ΔCp, Collagen 2A1: human bone marrow MSC, chondrogenic medium + TGF beta 3; for ΔCp, Collagen 2A1 / 2^-ΔΔCp vs saline, Collagen 2A1 / ΔΔCp vs saline, Collagen 2A1 / Mean ΔCp, Collagen 2A1: vs Actin
Method: as §1, §2, §3, §4, §5, §6, §7

TIMP1 = experiment: Stem cell chondrogenesis, real time PCR gene expression: TIMP1; conditions: Day 22; for Mean ΔCp / ΔCp: TIMP1 vs Actin
SOX9 = experiment: Stem cell chondrogenesis, real time PCR gene expression: SOX9; conditions: Day 14
Method: The treatment protocol included expanding 5 HUXMA stem cells in 182 cm^2 flasks containing 40 […] to 80-90% confluence. Cells were trypsinized from the flasks and a 1.0×10^7 cell suspension of HUXMA stem cells was warmed in Cyagen Chondrogenic Differentiation medium. 20 μl of warmed cell suspension was spotted in the middle of each well of a 24-well tissue culture plate (200,000 cells per spot), and incubated at 37° C. and 5% CO2 for one hour. […] Medium exchanges were performed every 3-4 days by aspirating the medium from the wells and replacing with fresh chondrogenic medium, diluted stocks, and TGF beta 3, as described above. […] Medium from the wells was removed and saved for further protein analysis. Qiagen RNeasy plus lysis buffer (with 2mercaptoethanol) was added to each well and gently shaken for 10 minutes. The lysed cell suspensions from each well were transferred to Qiashredder columns and spun at 14,000 rpm for 2 minutes. RNA isolation proceeded by RNeasyTM plus manufacturer's protocol. RNA was eluted from the Qiagen columns using 25 μl RNase free water. cDNA synthesis and real time PCR was conducted as follows. First strand synthesis of cDNA from all samples was performed in 20 μl total volume using 10 μl isolated RNA. All cDNA reactions were then diluted with 30 μl nuclease free water. Real time PCR was then performed using 5 μl diluted cDNA, Roche Syber green master mix, and Qiagen RT^2 gPCRTM primer pairs in 20 μl total reaction volume.

MMP13 = experiment: Stem cell chondrogenesis, real time PCR gene expression: MMP13; conditions: for Mean regulation: vs saline; for Mean ΔCp / ΔCp: MMP13 vs GAPDH
Method: as §1, §2, §3, §4, §5, §6, §7

[1] = vs Actin, single replicate well
[2] = Day 7, vs Actin, single replicate well

CC(=O)OCC(=O)[C@@]1(O)[C@H](C)C[C@H]2[C@@H]3CCC4=CC(=O)C=C[C@]4(C)[C@@]3(F)[C@@H](O)C[C@@]21C [Dexamethasone, Dexamethasone acetate]
Mean ΔCp (Aggrecan; Table 12): 6.523 | ΔCp (Aggrecan; Table 12): 6.28 and 6.69 and 6.6 | Mean ΔCp (Aggrecan; Table 16): 6.523 | ΔCp (Aggrecan; Table 16): 6.28 and 6.69 and 6.6 | 2-ΔΔCp vs saline (Aggrecan; Aggrecan, Table 12): 15.313 and 11.525 and 12.267 | Cp Agg (Aggrecan; Aggrecan, Table 12): 20.48 and 20.68 and 20.44 | 2^-ΔΔCp vs saline (Aggrecan; Aggrecan, Table 16): 15.313 and 11.525 and 12.267 | Cp Agg (Aggrecan; Aggrecan, Table 16): 20.48 and 20.68 and 20.44 | Mean regulation (Aggrecan; Aggrecan, Table 12): 13.03 | regulation (Aggrecan; Aggrecan, Table 12): 15.31 and 11.52 and 12.27 | Mean regulation (Aggrecan; Aggrecan, Table 16): 13.03 | regulation (Aggrecan; Aggrecan, Table 16): 15.31 and 11.52 and 12.27 | 2-^ΔΔCP vs saline (Collagen 2A1; Collagen 2A1, Day 22, Table 12): 141.7 and 196.27 and 168.51 | Cp Coll (Collagen 2A1; Collagen 2A1, Day 22, Table 12): 22.42 and 21.94 and 21.42 | 2^-ΔΔCp vs saline (Collagen 2A1; Collagen 2A1, Day 22, Table 16): 141.7 and 196.27 and 168.51 | Cp Coll (Collagen 2A1; Collagen 2A1, Day 22, Table 16): 22.42 and 21.94 and 21.42 | Mean regulation (Collagen 2A1; Collagen 2A1, Day 22, Table 12): 168.82 | regulation (Collagen 2A1; Collagen 2A1, Day 22, Table 12): 141.70 and 196.27 and 168.51 | Mean regulation (Collagen 2A1; Collagen 2A1, Day 22, Table 16): 168.82 | regulation (Collagen 2A1; Collagen 2A1, Day 22, Table 16): 141.70 and 196.27 and 168.51 | Mean ΔCp (Collagen 2A1; Day 22, Table 12): 5.76 | ΔCp (Collagen 2A1; Day 22, Table 12): 6 and 5.53 and 5.75 | Mean ΔCp (Collagen 2A1; Day 22, Table 16): 5.76 | ΔCp (Collagen 2A1; Day 22, Table 16): 6 and 5.53 and 5.75 | regulation, Collagen 2A1 (Collagen 2A1; Day 7): −1.01 and 2.61 and 2.72 | Mean regulation, Collagen 2A1 (Collagen 2A1; Day 7): 1.44 | ΔCp, Collagen 2A1 (Collagen 2A1; Day 7): 6.75 and 5.35 and 5.29 | 2^-ΔΔCp vs saline, Collagen 2A1 (Collagen 2A1; Day 7): 0.9885 and 2.6087 and 2.7195 | ΔΔCp vs saline, Collagen 2A1 (Collagen 2A1; Day 7): 0.017 and −1.38 and −1.44 | Mean ΔCp, Collagen 2A1 (Collagen 2A1; Day 7): 5.797 | regulation, Collagen 2A1 (Collagen 2A1; Day 14): 7.29 and 10.39 and 6.57 | Mean regulation, Collagen 2A1 (Collagen 2A1; Day 14): 8.08 | ΔCp, Collagen 2A1 (Collagen 2A1; Day 14): 8.19 and 7.68 and 8.34 | 2^-ΔΔCp vs saline, Collagen 2A1 (Collagen 2A1; Day 14): 7.2938 and 10.387 and 6.5735 | ΔΔCp vs saline, Collagen 2A1 (Collagen 2A1; Day 14): −2.87 and −3.38 and −2.72 | Mean ΔCp, Collagen 2A1 (Collagen 2A1; Day 14): 8.07 | Cp TIMP1 (TIMP1; TIMP1, Table 12): 17.35 and 16.81 | 2-^ΔΔCp vs saline (TIMP1; TIMP1, Table 16): 1.5333 and 1.3256 and 1.7371 | Cp TIMP1 (TIMP1; TIMP1, Table 16): 17.35 and 16.81 | Mean regulation (TIMP1; TIMP1, vs saline, Table 12): 1.53 | regulation (TIMP1; TIMP1, vs saline, Table 12): 1.33 and 1.74 and 1.53 | regulation (TIMP1; TIMP1, vs saline, Table 16): 1.53 and 1.33 and 1.74 | Mean ΔCp (TIMP1; Table 12): 3.16 | ΔCp (TIMP1; Table 12): 3.36 and 2.97 and 3.15 | Mean ΔCp (TIMP1; Table 16): 3.16 | ΔCp (TIMP1; Table 16): 3.15 and 3.36 and 2.97 | regulation, SOX9 (SOX9; fold regulation vs saline, single replicate well): −2.04 and −1.24 and −1.80 | Mean regulation, SOX9 (SOX9; fold regulation vs saline, triplicate wells): −1.69 | ΔCp, SOX9 (SOX9; human bone marrow MSC, chondrogenic medium + TGF beta 3, vs Actin, single replicate well): 8.21 and 7.49 and 8.03 | 2^-ΔΔCp vs saline, SOX9 (SOX9; [1]): 0.4897 and 0.8066 and 0.5548 | ΔΔCp vs saline, SOX9 (SOX9; [1]): 1.03 and 0.31 and 0.85 | Mean ΔCp, SOX9 (SOX9; vs Actin, triplicate wells): 7.91 | regulation, MMP13 (MMP13; Day 7, fold regulation vs saline, single replicate well): −1.62 and 1.64 and 1.33 | Mean regulation, MMP13 (MMP13; Day 7, fold regulation vs saline, triplicate wells): 0.45 | ΔCp, MMP13 (MMP13; Day 7, human bone marrow MSC, chondrogenic medium + TGF beta 3, vs Actin, single replicate well): 5.33 and 3.92 and 4.23 | 2^-ΔΔCp vs saline, MMP13 (MMP13; [2]): 0.6184 and 1.6434 and 1.3256 | ΔΔCp vs saline, MMP13 (MMP13; [2]): 0.693 and −0.72 and −0.41 | Mean ΔCp, MMP13 (MMP13; Day 7, vs Actin, triplicate wells): 4.493 | Cp, MMP13 (MMP13; MMP13, Day 22, Table 12): 20.77 and 20.68 and 20.35 | ΔΔCp vs saline (MMP13; MMP13, Day 22, Table 12): 1.357 and 1.277 and 1.687 | 2^-ΔΔCp vs saline (MMP13; MMP13, Day 22, Table 16): 0.3905 and 0.4127 and 0.3106 | Cp, MMP13 (MMP13; MMP13, Day 22, Table 16): 20.77 and 20.68 and 20.35 | ΔΔCp vs saline (MMP13; MMP13, Day 22, Table 16): 1.357 and 1.277 and 1.687 | Mean regulation (MMP13; MMP13, Day 22, Table 12): −2.73 | Mean regulation (MMP13; MMP13, Day 22, Table 16): −2.73 | Mean ΔCp (MMP13; Day 22, Table 12): 4.433 | ΔCp (MMP13; Day 22, Table 12): 4.35 and 4.27 and 4.68 | Mean ΔCp (MMP13; Day 22, Table 16): 4.433 | ΔCp (MMP13; Day 22, Table 16): 4.35 and 4.27 and 4.68
